“Also recorded” adds a separate entry of the source.
Key:
[1] = target: Norepinephrine α1 receptor; assay: In vitro receptor binding, norepinephrine α1 (rat)
[2] = target: T1, Serotonin 5-HT2c receptor (Sus scrofa, UniProt K7GSR7); assay type: binding, porcine
T1 sequence (K7GSR7 1-457): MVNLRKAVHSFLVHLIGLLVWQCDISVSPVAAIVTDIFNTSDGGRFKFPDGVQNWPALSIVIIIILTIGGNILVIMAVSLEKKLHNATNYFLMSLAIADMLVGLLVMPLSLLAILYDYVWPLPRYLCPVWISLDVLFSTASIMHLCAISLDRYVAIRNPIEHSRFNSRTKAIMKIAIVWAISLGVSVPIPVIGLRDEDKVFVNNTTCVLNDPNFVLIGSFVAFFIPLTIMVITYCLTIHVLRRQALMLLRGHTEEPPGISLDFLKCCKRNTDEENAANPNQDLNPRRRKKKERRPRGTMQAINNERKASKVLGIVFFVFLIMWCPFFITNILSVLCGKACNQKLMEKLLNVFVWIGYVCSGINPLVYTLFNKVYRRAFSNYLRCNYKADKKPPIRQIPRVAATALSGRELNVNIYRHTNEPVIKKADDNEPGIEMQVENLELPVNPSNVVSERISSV
Experimental: (§1) In vitro binding studies were carried out according to the procedures well-established in the art. Membranes from male Wistar rat brain tissues or cells expressing cloned human receptors were prepared under assay conditions summarized in Ishibashi, T. et al. (Journal of Pharmacology and Experimental Therapeutics (2010)). Functional assays were carried out to analyze the binding affinity and effect on receptor function for dopamine D1-D4 receptor subtypes, serotonin 5-HT1A, 5-HT2A, 5-HT2C, 5-HT6, 5-HT7, norepinephrine α1, α2A, α2C, histamine H1 receptors, and muscarinic M1 receptors.

Dopamine D1 receptor = target: T2, Dopamine D1 receptor (Rattus norvegicus, UniProt P18901); assay: In vitro receptor binding, dopamine D1 (rat); conditions: read-out: Binding Affinities (Ki; nM) Dopamine D1
T2 construct: Membranes from male Wistar rat brain tissues; from tissue; host or cells: male Wistar rat brain
Experimental: as §1

histamine H1 receptor [3] = target: histamine H1 receptor (Homo sapiens, UniProt P35367); conditions: background statement; cited from earlier work
[4] = target: T3, serotonin 5-HT1A receptor (Homo sapiens, UniProt P08908); conditions: background statement; cited from earlier work
T3 sequence (P08908 1-422): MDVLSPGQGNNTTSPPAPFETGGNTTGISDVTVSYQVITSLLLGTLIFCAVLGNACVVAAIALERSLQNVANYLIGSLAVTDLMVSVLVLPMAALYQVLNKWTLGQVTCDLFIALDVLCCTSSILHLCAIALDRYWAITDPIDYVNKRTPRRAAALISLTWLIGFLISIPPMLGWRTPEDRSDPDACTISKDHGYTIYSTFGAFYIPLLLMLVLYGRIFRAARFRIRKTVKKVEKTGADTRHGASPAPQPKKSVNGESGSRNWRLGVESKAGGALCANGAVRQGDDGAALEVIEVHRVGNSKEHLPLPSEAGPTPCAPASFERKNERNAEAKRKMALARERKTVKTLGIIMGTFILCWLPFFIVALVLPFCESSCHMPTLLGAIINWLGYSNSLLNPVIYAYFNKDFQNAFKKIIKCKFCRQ

Histamine H1 receptor [5] = target: Histamine H1 receptor (Cavia porcellus, UniProt P31389); assay: In vitro receptor binding, histamine H1 (guinea pig)
[6] = target: T4, Norepinephrine α2C receptor (Homo sapiens, UniProt P18825); assay: In vitro receptor binding, norepinephrine α2C
T4 sequence (P18825 1-462): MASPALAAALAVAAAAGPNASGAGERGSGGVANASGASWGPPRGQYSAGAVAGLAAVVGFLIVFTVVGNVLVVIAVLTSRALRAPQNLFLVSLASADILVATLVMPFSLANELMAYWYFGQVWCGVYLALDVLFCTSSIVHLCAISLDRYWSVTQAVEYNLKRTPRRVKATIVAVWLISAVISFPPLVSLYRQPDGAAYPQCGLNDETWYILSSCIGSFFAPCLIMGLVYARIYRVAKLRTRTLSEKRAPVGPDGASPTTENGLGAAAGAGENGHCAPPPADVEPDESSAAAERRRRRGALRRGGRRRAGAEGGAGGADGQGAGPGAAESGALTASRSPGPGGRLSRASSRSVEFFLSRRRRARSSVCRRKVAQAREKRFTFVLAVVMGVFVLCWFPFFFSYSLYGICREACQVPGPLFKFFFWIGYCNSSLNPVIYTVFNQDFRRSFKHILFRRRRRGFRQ

dopamine D2 receptor = dopamine D2 receptor (Homo sapiens, UniProt P14416); conditions: background statement; cited from earlier work
[7] = test system: patients with schizophrenia; assay: Quality of Well-Being (QWB-SA), 6-week placebo-controlled study; assay type: in vivo, human; conditions: 80 mg and 160 mg lurasidone per day, 6 weeks
Experimental: Quality of Well-Being (QWB) was measured according to the procedures well-established in the art. The QWB was a self administered questionnaire (QWB-SA), where the combined score ranged from 0 to 1.0 (death to optimal functioning). A patient diagnosed with schizophrenia answered five sections assessing the presence/absence of 19 chronic symptoms or problems, physical symptoms, and mental health symptoms and behaviors as well as an assessment of a person's mobility, physical activity and social activity including completion of role expectations. […] In addition, the relationship between other indicators of therapy outcome, for example, cognitive composite scores, PANSS scores, Negative Symptom Assessment Scale scores (NSA), and Montgomery-Asberg Depression Rating Scale scores (MADRS), was evaluated in relation to quality of life, as assessed by the QWB-SA. […] In addition, partial correlations were found between improvement of QWB-SA and PANSS scores, QWB-SA and MADE scores, QWB-SA and NSA scores, and QWB-SA and cognitive composite scores.

Histamine H1 receptor, sequence (P31389 whole entry): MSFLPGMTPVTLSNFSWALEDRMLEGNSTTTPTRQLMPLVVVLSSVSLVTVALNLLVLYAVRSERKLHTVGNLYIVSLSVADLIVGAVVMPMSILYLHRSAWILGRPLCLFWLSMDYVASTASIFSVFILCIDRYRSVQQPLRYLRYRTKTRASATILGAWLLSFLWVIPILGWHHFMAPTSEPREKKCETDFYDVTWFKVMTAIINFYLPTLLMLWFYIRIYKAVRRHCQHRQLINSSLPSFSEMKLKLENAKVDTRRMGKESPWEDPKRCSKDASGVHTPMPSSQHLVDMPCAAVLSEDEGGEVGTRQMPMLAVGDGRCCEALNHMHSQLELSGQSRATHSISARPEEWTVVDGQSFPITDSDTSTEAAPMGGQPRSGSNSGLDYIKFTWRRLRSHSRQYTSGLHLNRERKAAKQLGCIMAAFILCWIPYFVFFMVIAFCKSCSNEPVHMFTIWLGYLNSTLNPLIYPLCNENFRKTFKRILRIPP
dopamine D2 receptor, sequence (P14416 whole entry): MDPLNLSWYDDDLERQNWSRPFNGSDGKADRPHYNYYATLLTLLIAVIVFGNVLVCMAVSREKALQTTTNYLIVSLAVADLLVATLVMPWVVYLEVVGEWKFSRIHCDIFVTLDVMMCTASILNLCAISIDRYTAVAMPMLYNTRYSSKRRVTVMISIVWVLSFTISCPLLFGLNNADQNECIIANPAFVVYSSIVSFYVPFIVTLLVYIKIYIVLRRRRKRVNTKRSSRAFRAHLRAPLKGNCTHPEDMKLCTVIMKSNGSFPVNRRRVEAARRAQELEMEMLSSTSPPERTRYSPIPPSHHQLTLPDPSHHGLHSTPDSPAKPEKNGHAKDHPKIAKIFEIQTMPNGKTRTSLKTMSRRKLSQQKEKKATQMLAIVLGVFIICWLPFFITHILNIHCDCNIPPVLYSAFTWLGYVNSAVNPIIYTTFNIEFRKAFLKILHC
histamine H1 receptor, sequence (P35367 whole entry): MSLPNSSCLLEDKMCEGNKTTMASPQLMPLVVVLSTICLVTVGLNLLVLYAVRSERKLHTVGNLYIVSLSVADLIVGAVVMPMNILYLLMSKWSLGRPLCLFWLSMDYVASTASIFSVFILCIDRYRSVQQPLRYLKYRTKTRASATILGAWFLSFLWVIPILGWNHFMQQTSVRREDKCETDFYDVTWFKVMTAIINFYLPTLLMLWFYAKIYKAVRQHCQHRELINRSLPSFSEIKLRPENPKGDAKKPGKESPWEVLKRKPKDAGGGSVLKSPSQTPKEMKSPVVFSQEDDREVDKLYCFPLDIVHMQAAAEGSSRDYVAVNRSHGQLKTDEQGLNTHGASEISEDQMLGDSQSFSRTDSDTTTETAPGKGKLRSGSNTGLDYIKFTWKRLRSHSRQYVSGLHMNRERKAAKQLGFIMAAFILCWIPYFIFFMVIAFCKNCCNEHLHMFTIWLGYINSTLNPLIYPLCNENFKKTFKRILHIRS
T2 sequence (P18901 whole entry): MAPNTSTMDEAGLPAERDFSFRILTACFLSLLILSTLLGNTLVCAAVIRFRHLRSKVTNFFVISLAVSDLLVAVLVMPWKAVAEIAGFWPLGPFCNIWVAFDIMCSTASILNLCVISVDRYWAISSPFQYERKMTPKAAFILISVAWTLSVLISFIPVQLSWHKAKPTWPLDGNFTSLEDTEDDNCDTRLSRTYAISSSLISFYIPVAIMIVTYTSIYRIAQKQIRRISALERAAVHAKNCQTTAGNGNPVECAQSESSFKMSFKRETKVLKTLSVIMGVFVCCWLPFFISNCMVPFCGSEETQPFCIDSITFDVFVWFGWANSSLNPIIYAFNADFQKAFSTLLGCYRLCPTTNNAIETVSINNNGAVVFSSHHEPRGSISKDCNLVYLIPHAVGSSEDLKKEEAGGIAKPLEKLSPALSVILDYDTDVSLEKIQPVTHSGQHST

O=C1[C@@H]2[C@H]3CC[C@H](C3)[C@@H]2C(=O)N1C[C@@H]1CCCC[C@H]1CN1CCN(c2nsc3ccccc23)CC1 [Lurasidone]
Ki ([1]; rat, read-out: Binding Affinities (Ki; nM) Norepinephrine α1): 47.9 nM | binding affinity for α1 adrenoreceptor (in words) ([1]; summary of Table 2): low or negligible binding affinity | Ki ([2]; porcine, read-out: Binding Affinities (Ki; nM) Serotonin 5-HT2c): 415 nM | binding affinity for serotonin 5-HT2C receptor (in words) ([2]; summary of Table 2): low or negligible binding affinity | Ki (Dopamine D1 receptor): 262 nM | reported affinity for histamine H1 receptor (histamine H1 receptor [3]): minimal to no affinity | reported affinity for 5-HT1A receptor [4]: high affinity; also recorded: moderate affinity | Ki (Histamine H1 receptor [5]; guinea pig, read-out: Binding Affinities (Ki; nM) Histamine H1): > 1000 nM | binding affinity for histamine H1 receptor (in words) (Histamine H1 receptor [5]; summary of Table 2): low or negligible binding affinity | Ki ([6]; cloned cells expressing human receptors, read-out: Binding Affinities (Ki; nM) Norepinephrine α2C): 10.8 nM | affinity for α2C adrenoreceptor (in words) ([6]; summary of Table 2): moderate affinity | reported affinity for dopamine D2 receptor (dopamine D2 receptor): high affinity | QWB-SA score compared to placebo (endpoint ANCOVA) [7]: significant improvement

Source: patent US20140350029A1 (DAINIPPON SUMITOMO PHARMA CO., LTD., priority 2011, published 2014)
